{"source": "patent US20030104507A1", "about": "“Method for detection of ATP” (priority 2001, published 2003)", "system": "ATPase activity endogenous to L929 cell lysate", "test": "Detergent inhibition of ATPase endogenous to L929 cell lysate (ATP remaining by luciferase luminescence, 22° C.)", "format": "biochemical", "set-up": "key to Relative ATPase Activity, slope det/slope lysate: slope with detergent / slope without; ≥1.0 = 100% activity, 0.5 = 50%", "in_short": "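L929 lysate (1.5×10^5 cells/ml, four freeze–thaw cycles) held with detergent at final 1.0, 0.5, 0.1 or 0.05% at 22° C; remaining ATP read over time with luciferase-luciferin reagent (100 μM luciferin, 10 mM MgSO4, pH 7.5). Relative ATPase activity = slope of log % ATP remaining vs time with detergent ÷ slope for lysate-only control.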", "key": {"[1]": {"conditions": "Example 2, 0.02% detergent, 5 min"}, "[2]": {"conditions": "Example 2, 0.02% detergent, 75 min"}, "[3]": {"conditions": "Example 2, 0.02% detergent, 169 min"}, "[4]": {"conditions": "Example 2, 0.02% detergent, 222 min"}, "[5]": {"conditions": "Example 2, 0.02% detergent, 260 min"}}, "data": [{"molecule": "CCCCCCCCCCCC[N+](C)(C)Cc1ccccc1.[Br-]", "note": "[BDDABr, Benzyldimethyldodecylammonium bromide]", "values": [{"measurement": "Relative ATPase Activity, slope det/slope lysate", "setting": "0.02 percent detergent", "result": 0.623}, {"measurement": "Slope (log percent ATP remaining vs time in minutes)", "setting": "0.02 percent detergent", "result": "−0.0039"}, {"measurement": "Average Relative Light Unit Values", "setting": "0.05% detergent, 5 min", "result": 7077.46, "unit": "rlu"}, {"measurement": "Percent ATP Remaining", "setting": "0.05% detergent, 5 min", "result": 100, "unit": "%"}, {"measurement": "Average Relative Light Unit Values", "setting": "0.05% detergent, 75 min", "result": 4539.97, "unit": "rlu"}, {"measurement": "Percent ATP Remaining", "setting": "0.05% detergent, 75 min", "result": 64.1, "unit": "%"}, {"measurement": "Average Relative Light Unit Values", "setting": "0.05% detergent, 169 min", "result": 2465.57, "unit": "rlu"}, {"measurement": "Percent ATP Remaining", "setting": "0.05% detergent, 169 min", "result": 34.8, "unit": "%"}, {"measurement": "Average Relative Light Unit Values", "setting": "0.05% detergent, 222 min", "result": 1680.16, "unit": "rlu"}, {"measurement": "Percent ATP Remaining", "setting": "0.05% detergent, 222 min", "result": 23.7, "unit": "%"}, {"measurement": "Average Relative Light Unit Values", "setting": "0.05% detergent, 260 min", "result": 1233.82, "unit": "rlu"}, {"measurement": "Percent ATP Remaining", "setting": "0.05% detergent, 260 min", "result": 17.4, "unit": "%"}, {"measurement": "Relative ATPase Activity, slope det/slope lysate", "setting": "0.05 percent detergent", "result": 0.528}, {"measurement": "Slope (log percent ATP remaining vs time in minutes)", "setting": "0.05 percent detergent", "result": "−0.0030"}, {"measurement": "Average Relative Light Unit Values", "setting": "0.1% detergent, 5 min", "result": 7069.08, "unit": "rlu"}, {"measurement": "Percent ATP Remaining", "setting": "0.1% detergent, 5 min", "result": 100, "unit": "%"}, {"measurement": "Average Relative Light Unit Values", "setting": "0.1% detergent, 75 min", "result": 5136.92, "unit": "rlu"}, {"measurement": "Percent ATP Remaining", "setting": "0.1% detergent, 75 min", "result": 72.7, "unit": "%"}, {"measurement": "Average Relative Light Unit Values", "setting": "0.1% detergent, 169 min", "result": 3260.59, "unit": "rlu"}, {"measurement": "Percent ATP Remaining", "setting": "0.1% detergent, 169 min", "result": 46.1, "unit": "%"}, {"measurement": "Average Relative Light Unit Values", "setting": "0.1% detergent, 222 min", "result": 2366.49, "unit": "rlu"}, {"measurement": "Percent ATP Remaining", "setting": "0.1% detergent, 222 min", "result": 33.5, "unit": "%"}, {"measurement": "Average Relative Light Unit Values", "setting": "0.1% detergent, 260 min", "result": 1767.58, "unit": "rlu"}, {"measurement": "Percent ATP Remaining", "setting": "0.1% detergent, 260 min", "result": 25.0, "unit": "%"}, {"measurement": "Relative ATPase Activity, slope det/slope lysate", "setting": "0.10 percent detergent", "result": 0.414}, {"measurement": "Slope (log percent ATP remaining vs time in minutes)", "setting": "0.10 percent detergent", "result": "−0.0023"}, {"measurement": "Average Relative Light Unit Values", "setting": "0.5% detergent, 5 min", "result": 122.47, "unit": "rlu"}, {"measurement": "Percent ATP Remaining", "setting": "0.5% detergent, 5 min", "result": 100, "unit": "%"}, {"measurement": "Average Relative Light Unit Values", "setting": "0.5% detergent, 75 min", "result": 107.39, "unit": "rlu"}, {"measurement": "Percent ATP Remaining", "setting": "0.5% detergent, 75 min", "result": 87.7, "unit": "%"}, {"measurement": "Average Relative Light Unit Values", "setting": "0.5% detergent, 169 min", "result": 93.92, "unit": "rlu"}, {"measurement": "Percent ATP Remaining", "setting": "0.5% detergent, 169 min", "result": 76.2, "unit": "%"}, {"measurement": "Average Relative Light Unit Values", "setting": "0.5% detergent, 222 min", "result": 96.68, "unit": "rlu"}, {"measurement": "Percent ATP Remaining", "setting": "0.5% detergent, 222 min", "result": 78.9, "unit": "%"}, {"measurement": "Average Relative Light Unit Values", "setting": "0.5% detergent, 260 min", "result": 101.11, "unit": "rlu"}, {"measurement": "Percent ATP Remaining", "setting": "0.5% detergent, 260 min", "result": 82.6, "unit": "%"}, {"measurement": "Relative ATPase Activity, slope det/slope lysate", "setting": "0.50 percent detergent", "result": 0.064}, {"measurement": "Slope (log percent ATP remaining vs time in minutes)", "setting": "0.50 percent detergent", "result": "−0.0004"}, {"measurement": "Average Relative Light Unit Values", "setting": "1.0% detergent, 5 min", "result": 0.49, "unit": "rlu"}, {"measurement": "Average Relative Light Unit Values", "setting": "1.0% detergent, 75 min", "result": 0.51, "unit": "rlu"}, {"measurement": "Average Relative Light Unit Values", "setting": "1.0% detergent, 169 min", "result": 0.44, "unit": "rlu"}, {"measurement": "Average Relative Light Unit Values", "setting": "1.0% detergent, 222 min", "result": 0.42, "unit": "rlu"}, {"measurement": "Average Relative Light Unit Values", "setting": "1.0% detergent, 260 min", "result": 0.43, "unit": "rlu"}, {"measurement": "Average Relative Light Unit Values", "setting": "[1]", "result": 6215.32, "unit": "rlu"}, {"measurement": "Percent ATP Remaining", "setting": "[1]", "result": 100.00, "unit": "%"}, {"measurement": "Average Relative Light Unit Values", "setting": "[2]", "result": 2686.49, "unit": "rlu"}, {"measurement": "Percent ATP Remaining", "setting": "[2]", "result": 48.53, "unit": "%"}, {"measurement": "Average Relative Light Unit Values", "setting": "[3]", "result": 962.85, "unit": "rlu"}, {"measurement": "Percent ATP Remaining", "setting": "[3]", "result": 21.51, "unit": "%"}, {"measurement": "Average Relative Light Unit Values", "setting": "[4]", "result": 604.47, "unit": "rlu"}, {"measurement": "Percent ATP Remaining", "setting": "[4]", "result": 13.18, "unit": "%"}, {"measurement": "Average Relative Light Unit Values", "setting": "[5]", "result": 429.86, "unit": "rlu"}, {"measurement": "Percent ATP Remaining", "setting": "[5]", "result": 9.74, "unit": "%"}]}, {"molecule": "CCCCCCCCCCCCCCCC[N+](C)(C)C.[Br-]", "note": "[CTAB, Cetyltrimethylammonium bromide]", "values": [{"measurement": "Relative ATPase Activity, slope det/slope lysate", "setting": "0.02 percent detergent", "result": 0.718}, {"measurement": "Slope (log percent ATP remaining vs time in minutes)", "setting": "0.02 percent detergent", "result": "−0.0046"}, {"measurement": "Average Relative Light Unit Values", "setting": "0.05% detergent, 5 min", "result": 6525.51, "unit": "rlu"}, {"measurement": "Percent ATP Remaining", "setting": "0.05% detergent, 5 min", "result": 100, "unit": "%"}, {"measurement": "Average Relative Light Unit Values", "setting": "0.05% detergent, 75 min", "result": 4029.32, "unit": "rlu"}, {"measurement": "Percent ATP Remaining", "setting": "0.05% detergent, 75 min", "result": 61.7, "unit": "%"}, {"measurement": "Average Relative Light Unit Values", "setting": "0.05% detergent, 169 min", "result": 2093.80, "unit": "rlu"}, {"measurement": "Percent ATP Remaining", "setting": "0.05% detergent, 169 min", "result": 32.1, "unit": "%"}, {"measurement": "Average Relative Light Unit Values", "setting": "0.05% detergent, 222 min", "result": 1437.67, "unit": "rlu"}, {"measurement": "Percent ATP Remaining", "setting": "0.05% detergent, 222 min", "result": 22.0, "unit": "%"}, {"measurement": "Average Relative Light Unit Values", "setting": "0.05% detergent, 260 min", "result": 1002.72, "unit": "rlu"}, {"measurement": "Percent ATP Remaining", "setting": "0.05% detergent, 260 min", "result": 15.4, "unit": "%"}, {"measurement": "Relative ATPase Activity, slope det/slope lysate", "setting": "0.05 percent detergent", "result": 0.561}, {"measurement": "Slope (log percent ATP remaining vs time in minutes)", "setting": "0.05 percent detergent", "result": "−0.0031"}, {"measurement": "Average Relative Light Unit Values", "setting": "0.1% detergent, 5 min", "result": 5104.82, "unit": "rlu"}, {"measurement": "Percent ATP Remaining", "setting": "0.1% detergent, 5 min", "result": 100, "unit": "%"}, {"measurement": "Average Relative Light Unit Values", "setting": "0.1% detergent, 75 min", "result": 3607.65, "unit": "rlu"}, {"measurement": "Percent ATP Remaining", "setting": "0.1% detergent, 75 min", "result": 70.7, "unit": "%"}, {"measurement": "Average Relative Light Unit Values", "setting": "0.1% detergent, 169 min", "result": 1889.29, "unit": "rlu"}, {"measurement": "Percent ATP Remaining", "setting": "0.1% detergent, 169 min", "result": 37.0, "unit": "%"}, {"measurement": "Average Relative Light Unit Values", "setting": "0.1% detergent, 222 min", "result": 1248.51, "unit": "rlu"}, {"measurement": "Percent ATP Remaining", "setting": "0.1% detergent, 222 min", "result": 24.5, "unit": "%"}, {"measurement": "Relative ATPase Activity, slope det/slope lysate", "setting": "0.10 percent detergent", "result": 0.507}, {"measurement": "Slope (log percent ATP remaining vs time in minutes)", "setting": "0.10 percent detergent", "result": "−0.0028"}, {"measurement": "Average Relative Light Unit Values", "setting": "0.5% detergent, 5 min", "result": 0.34, "unit": "rlu"}, {"measurement": "Average Relative Light Unit Values", "setting": "0.5% detergent, 75 min", "result": 0.28, "unit": "rlu"}, {"measurement": "Average Relative Light Unit Values", "setting": "0.5% detergent, 169 min", "result": 0.23, "unit": "rlu"}, {"measurement": "Average Relative Light Unit Values", "setting": "0.5% detergent, 222 min", "result": 0.27, "unit": "rlu"}, {"measurement": "Average Relative Light Unit Values", "setting": "0.5% detergent, 260 min", "result": 0.18, "unit": "rlu"}, {"measurement": "Average Relative Light Unit Values", "setting": "1.0% detergent, 5 min", "result": 0.09, "unit": "rlu"}, {"measurement": "Average Relative Light Unit Values", "setting": "1.0% detergent, 75 min", "result": 0.08, "unit": "rlu"}, {"measurement": "Average Relative Light Unit Values", "setting": "1.0% detergent, 169 min", "result": 0.07, "unit": "rlu"}, {"measurement": "Average Relative Light Unit Values", "setting": "1.0% detergent, 222 min", "result": 0.06, "unit": "rlu"}, {"measurement": "Average Relative Light Unit Values", "setting": "1.0% detergent, 260 min", "result": 0.07, "unit": "rlu"}, {"measurement": "times more ATP present in the sample after four hours when the detergent was present than when it was absent", "setting": "CTAB 0.05%", "result": "about four"}, {"measurement": "Percent ATP Remaining", "setting": "[1]", "result": 100.00, "unit": "%"}, {"measurement": "Percent ATP Remaining", "setting": "[2]", "result": 43.22, "unit": "%"}, {"measurement": "Percent ATP Remaining", "setting": "[3]", "result": 15.49, "unit": "%"}, {"measurement": "Percent ATP Remaining", "setting": "[4]", "result": 9.73, "unit": "%"}, {"measurement": "Percent ATP Remaining", "setting": "[5]", "result": 6.92, "unit": "%"}]}]}
